From patent US20050288227A1, “Use of thioredoxin measurements for diagnostics and treatments” (priority 2002, published 2005)
Where two headings read alike, the source gives them in different places.

How the values were obtained:
[1] = tested on: HDAC; details: literature statement, cited from earlier work
[2] = tested on: solid and hematological tumors; details: cited from earlier work
[3] = tested on: TRX; test: Western blot of TRX protein in WI38; type: cell-based, human; details: WI38 cultured with 5 μmol/l SAHA, FIG. 4B
Procedure: (§1) Typically, whole cell lysates were prepared using a buffer (50 mM Tris-HCL pH 8, 300 mM NaCl, 5 mM EDTA, 0.5% NP-40, inhibitor pellet from Roche). Next, 10-25 μg of cell extract were subjected to standard SDS-poly acrylamide gel electrophoresis using 10%, 15%, and 18% criterion gels (Bio-Rad). After transferring to PVDF membrane (Amersham Biosciences), the membranes were blocked with 5% BSA PBS-Tween (0.1%). The membranes were then incubated with specific primary antibody and horseradish peroxidase-labeled secondary antibody. Immunoprecipitation was based on the protocol of Santa Cruz Biotechnology. Briefly, 100-500 μg of total cellular protein were applied and incubated with protein agarose (Ausubel, F. M., et al. Current Protocols in Molecular Biology. 10.16 John Wiley & Sons. 2001).
(§2) TBP-2 antiserum was generated in rabbits (Pocono Farms) using following sequence (peptide) CYM DVI PED HRL ESP (SEQ ID NO:7). Anti-TRX was prepared in the laboratory of Dr. Arne Holmgren (Karolinska institute) as a goat polyclonal antibody. Anti-tubulin was purchased from Oncogene.
(§3) TBP-2 has been identified as a protein that associates with the active (reduced) form of TRX, a dithiol-reducing redox regulatory protein (Nishiyama, A., et al., 1999, J. Biol. Chem. 274, 21645-21650). Binding of TBP-2 to TRX both inhibits the thiol-reducing activity and reduces the level of expression of TRX. […]

[4] = tested on: TRX; test: Western blot of TRX protein in VA13; type: cell-based, human; details: VA13 cultured with 5 μmol/l SAHA, FIG. 4B
Procedure: as §1, §2, §3

[5] = tested on: WI38 (human lung fibroblast); test: SAHA-induced apoptosis / viability; type: cell-based; details: normal fibroblast WI38 cells, FIGS. 2-3
Text: (§4) HeLa (human cervical carcinoma), WI38 (human lung fibroblast), WI38-VA13 (SV-40 transformed human lung fibroblast), MCF-7 (human breast adenocarcinoma), T-24 human bladder transitional cell carcinoma), and LNCAP (human prostate adenocarcinoma) were obtained from the American type culture collection and cultured in accordance with the instructions. ARP-1 (human multiple myeloma) was generously provided by Dr. J. Hardoc (Arkansas Cancer Research Center, Little Rock) and cultured as indicated by the source.
(§5) Cells were harvested by trypsinization. Cell number and viability were measured by trypan blue dye exclusion and by Guava PCA-96 via count flex reagent according to the manufacturer's instruction (Guava).

[6] = tested on: WI38-VA13 (SV-40 transformed human lung fibroblast); test: SAHA-induced apoptosis / viability; type: cell-based
Text: as §4, §5

[7] = tested on: WI38 (human lung fibroblast); test: Cell growth (cell number, trypan blue / Guava); type: cell-based; details: WI38 cells, FIG. 2B
Text: as §4, §5

[8] = tested on: WI38-VA13 (SV-40 transformed human lung fibroblast); test: Cell growth (cell number, trypan blue / Guava); type: cell-based; details: VA13 cells, FIG. 2A
Text: as §4, §5

[9] = tested on: tumor growth; details: animals; cited from earlier work
[10] = tested on: acetylated histones in PMN cells; details: following a single oral dose; cited from earlier work
[11] = tested on: TRX; test: Northern blot of TRX mRNA in WI38; type: cell-based, human; details: WI38 cultured with 5 μmol/l SAHA, FIG. 4A
Procedure: Cells were cultured and recovered by centrifugation and RNA was prepared as described (Richon, V. M., et al., 1996, Proc. Natl. Acad. Sci. USA. 93:5705-5708). Total RNA (10 μg) was analyzed by northern blotting using a ^32P-labeled 1.1-kb TBP-2 coding region cDNA probe or a 500 bp cDNA probe for human TRX (Butler et al., 2002, Proc. Natl. Acad. Sci. USA 99:11700-11705). Loading was determined using a ^32P labeled 50-mer 18s rRNA oligonucleotide.

[12] = tested on: metastatic renal cell carcinoma; details: Phase II; cited from earlier work
[13] = tested on: non-small cell lung cancer; details: Phase II, cited from earlier work
[14] = oral formulation of PB; cited from earlier work
[15] = tested on: acute myelogenous leukemia; details: a patient with acute myelogenous leukemia; cited from earlier work
[16] = phase I; cited from earlier work

C/C=C1\NC(=O)[C@H]2CSSCC/C=C/[C@H](CC(=O)N[C@H](C(C)C)C(=O)N2)OC(=O)[C@H](C(C)C)NC1=O [depsipeptide]
HDAC inhibitory potency (level of activity) [1]: active at nanomolar levels
HDAC inhibitory potency (level of activity) ([1]; listed as Depsipeptide): inhibits HDACs at nanomolar concentrations

O=C(CCCCCCC(=O)Nc1ccccc1)NO [SAHA, suberoylanilide hydroxamic acid]
drug related deaths ([2]; oral SAHA, patients): no drug related deaths
longest duration of therapy (durable responses) ([2]; oral SAHA, patients): over 18 months
oral bioavailability ([2]; oral formulation of SAHA): good oral bioavailibity
TRX protein levels [3]: increased significantly
TRX protein levels [4]: quickly decrease to undetectable levels
apoptosis [5]: little or no apoptosis
growth arrest and apoptosis ([6]; transformed VA13, FIGS. 2-3): induced growth arrest and apoptosis
SAHA concentration sufficient to induce significant apoptosis ([6]; transformed cells, after 24-48 hours of SAHA treatment, FIG. 3A): 1.25 to 2.5 µmol/L
SAHA dose that induces growth arrest [7]: ≥ 2.5 µM
SAHA dose that induces growth arrest [8]: ≥ 2.5 µM
toxicity to the animal [9]: no toxicity
persistence of accumulation of acetylated histones in PMN cells [10]: up to 10 hrs
TRX mRNA expression [11]: increased significantly

O=C(/C=C/c1ccc(CN(CCO)CCc2c[nH]c3ccccc23)cc1)NO [LAQ824]
HDAC inhibitory potency (level of activity) [1]: nanomolar inhibitor

CC(=O)Nc1ccc(C(=O)Nc2ccccc2N)cc1 [CI-994]
HDAC inhibitory potency (level of activity) [1]: less potent than the corresponding hydroxamates and cyclic tetrapeptides
patients with stable disease for greater than 8 weeks [12]: 58%
patients having a partial response to therapy ([13]; 32 patients): 7%
patients having stable disease for over 8 weeks [13]: 28%

O=C(O)CCCc1ccccc1 [phenyl butyrate, Phenyl Butyrate]
HDAC inhibitory potency (level of activity) [1]: millimolar levels of activity
biologic active plasma concentrations reached [14]: 0.5 mM
oral bioavailability [14]: good bioavailability

CCCC(CCC)C(=O)O [valproic acid, Valproic Acid]
HDAC inhibitory potency (level of activity) [1]: millimolar levels of activity
clinical response [15]: transient partial remission

Nc1ccccc1NC(=O)c1ccc(CNC(=O)OCc2cccnc2)cc1 [MS-275, N-(2-aminophenyl)-4-[N-(pyridin-3-yl-methoxycarbonyl)aminomethyl] benzamide]
half-life [16]: longer than expected
HDAC inhibitory potency (level of activity) [1]: less potent than the corresponding hydroxamates and cyclic tetrapeptides
